Source: US7714019B2 (priority 2002, dated 2010)

System: HIV-1 single-round infectious reporter virus
Experiment: microbe, parasite or virus in culture
Format: cell-based
Conditions: Human immunodeficiency virus 1, HeLa-CD4/CCR5, 72 h, read-out: EC50 Group from Table 1
Method: • Virus production-Human embryonic Kidney cell line, 293, propagated in Dulbecco's Modified Eagle Medium (Life Technologies, Gaithersburg, Md.) containing 10% fetal Bovine serum (FBS, Sigma, St. Louis, Mo.). • Virus infection-Human epithelial cell line, HeLa, expressing the HIV-1 receptors CD4 and CCR5 was propagated in Dulbecco's Modified Eagle Medium (Life Technologies, Gaithersburg, Md.) containing 10% fetal Bovine serum (FBS, Sigma, St. Louis, Mo.) and supplemented with 0.2 mg/mL Geneticin (Life Technologies, Gaithersburg, Md.) and 0.4 mg/mL Zeocin (Invitrogen, Carlsbad, Calif.). Virus—Single-round infectious reporter virus was produced by co-transfecting human embryonic Kidney 293 cells with an HIV-1 envelope DNA expression vector and a proviral cDNA containing an envelope deletion mutation and the luciferase reporter gene inserted in place of HIV-1 nef sequences (Chen et al, Ref. 41). Transfections were performed using lipofectAMINE PLUS reagent as described by the manufacturer (Life Technologies, Gaithersburg, Md.). Experiment • 1. Compound was added to HeLa CD4 CCR5 cells plated in 96 well plates at a cell density of 1×10^3 cells per well in 100 μl Dulbecco's Modified Eagle Medium containing 10% fetal Bovine serum at a concentration of <20 μM. • 2. 100 μl of single-round infectious reporter virus in Dulbecco's Modified Eagle Medium was then added to the plated cells and compound at an approximate multiplicity of infection (MOI) of 0.01, resulting in a final volume of 200 μl per well and a final compound concentration of <10 μM. • 3. Samples were harvested 72 h after infection. • 4. Viral infection was monitored by measuring luciferase expression from viral DNA in the infected cells using a luciferase reporter gene assay kit (Roche Molecular Biochemicals, Indianapolis, Ind.). Infected cell supernatants were removed and 50 μl of Dulbecco's Modified Eagle Medium (without phenol red) and 50 μl of luciferase assay reagent reconstituted as described by the manufacturer (Roche Molecular Biochemicals, Indianapolis, Ind.) was added per well. Luciferase activity was then quantified by measuring luminescence using a Wallac microbeta scintillation counter. • 5. […] An EC50 provides a method for comparing the antiviral potency of the compounds of this invention. The effective concentration for fifty percent inhibition (EC50) was calculated with the Microsoft Excel Xlfit curve fitting software. For each compound, curves were generated from percent inhibition calculated at 10 different concentrations by using a four parameter logistic model (model 205). Table 1 is the key for the data in Table 2. Results

| SMILES | EC50 |
| --- | --- |
| O=C(NCC1CCN(C(=O)c2ccccc2)C1)C(=O)c1c[nH]c2cccc(F)c12 (centres unmarked) [Example 1, N-(1-Benzoyl-pyrrolidin-3-ylmethyl)-2-(4-fluoro-1H-indol-3-yl)-2-oxo-acetamide] | < 1 µM |
| CC(C)(C)OC(=O)NCC1CCN(C(=O)C(=O)c2c[nH]c3cccc(F)c23)C1 (centres unmarked) [Example 2, {1-[2-(4-Fluoro-1H-indol-3-yl)-2-oxo-acetyl]-pyrrolidin-3-ylmethyl}-carbamic acid tert-butyl ester] | > 5 µM |
| O=C(NCC1CCN(C(=O)C(=O)c2c[nH]c3cccc(F)c23)C1)c1ccccc1 (centres unmarked) [Example 3, N-{1-[2-(4-Fluoro-1H-indol-3-yl)-2-oxo-acetyl]-pyrrolidin-3-ylmethyl}-benzamide] | < 1 µM |
| O=C(NCC1CCN(C(=O)C(=O)c2cn(C(=O)c3ccccc3)c3cccc(F)c23)C1)c1ccccc1 (centres unmarked) [Example 4, N-{1-[2-(1-Benzoyl-4-fluoro-1H-indol-3-yl)-2-oxo-acetyl]-pyrrolidin-3-ylmethyl}-benzamide] | < 1 µM |
| O=Cc1ccc(F)c2c(C(=O)C(=O)NCC3CCN(C(=O)c4ccccc4)C3)c[nH]c12 (centres unmarked) [Example 5, N-(1-Benzoyl-pyrrolidin-3-ylmethyl)-2-(4-fluoro-7-formyl-1H-indol-3-yl)-2-oxo-acetamide] | 1 to 5 µM |
| O=C(NCC1CCN(C(=O)c2ccccc2)C1)C(=O)c1c[nH]c2ncccc12 (centres unmarked) [Example 6, N-(1-Benzoyl-pyrrolidin-3-ylmethyl)-2-oxo-2-(1H-pyrrolo[2,3-b]pyridin-3-yl)-acetamide] | > 5 µM |
| O=C(NCC1CCN(C(=O)c2ccccc2)C1)C(=O)c1c[nH]c2c(C(=O)O)ccc(F)c12 (centres unmarked) [Example 7] | 1 to 5 µM |
| CNC(=O)c1ccc(F)c2c(C(=O)C(=O)NCC3CCN(C(=O)c4ccccc4)C3)c[nH]c12 (centres unmarked) [Example 8] | < 1 µM |
| O=C(NC[C@@H]1CCN(C(=O)C(=O)c2c[nH]c3c(Br)ccc(F)c23)C1)c1ccccc1 [Example 9, N-{1-[2-(7-Bromo-4-fluoro-1H-indol-3-yl)-2-oxo-acetyl]-pyrrolidin-3-ylmethyl}-benzamide] | < 1 µM |
| O=C(NC[C@H]1CCN(C(=O)C(=O)c2c[nH]c3c(Br)ccc(F)c23)C1)c1ccccc1 [Example 10, N-{1-[2-(7-Bromo-4-fluoro-1H-indol-3-yl)-2-oxo-acetyl]-pyrrolidin-3-ylmethyl}-benzamide] | < 1 µM |
| O=C(NC[C@H]1CCN(C(=O)C(=O)c2c[nH]c3c(-c4cc[nH]n4)ccc(F)c23)C1)c1ccccc1 [Example 11, N-(1-{2-[4-Fluoro-7-(1H-pyrazol-3-yl)-1H-indol-3-yl]-2-oxo-acetyl}-pyrrolidin-3-ylmethyl)-benzamide] | < 1 µM |
| O=C(NC[C@@H]1CCN(C(=O)C(=O)c2c[nH]c3c(-c4cc[nH]n4)ccc(F)c23)C1)c1ccccc1 [Example 12, N-(1-{2-[4-Fluoro-7-(1H-pyrazol-3-yl)-1H-indol-3-yl]-2-oxo-acetyl}-pyrrolidin-3-ylmethyl)-benzamide] | < 1 µM |
| O=C(NCC1CCCN1C(=O)C(=O)c1c[nH]c2ccccc12)c1ccccc1 (centres unmarked) [Example 13] | < 1 µM |
| CN(C(=O)c1c[nH]c2ccccc12)C1CCN(C(=O)c2ccccc2)C1 (centres unmarked) [Example 14, 1H-Indole-3-carboxylic acid (1-benzoyl-pyrrolidin-3-yl)-methyl-amide] | > 5 µM |
